Experimental data as given in US20240173419A1, “CDK2 DEGRADERS AND USES THEREOF” (Kymera Therapeutics, Inc., priority 2022, published 2024).

Target: T1, CDK2 (Homo sapiens, UniProt P24941)
T1 construct: endogenous in cells; host or cells: MKN1 cells
Assay: CDK2 degradation in MKN1 cells (AlphaLISA)
Format: cell-based
Design: key to CDK2 degradation 14 h: Mean external-Abs DC50 (nM): A (<100 nM); B (≥100-500 nM); C (>500-1000 nM); D (>1000 nM); E (not achieved)
Conditions: for DC50 / CDK2 degradation 14 h: Average Dmax % / CDK2 degradation 14 h: Mean external-Abs DC50 (nM): 14 h incubation; for DC50: read-out: CDK2 degradation 14 h: Mean external-Abs DC50; for Dmax: MKN-1, 14 h incubation
In short: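 DC50 from four-parameter logistic fit of AlphaLISA CDK2 signal, corrected for no-cell wells. Lysates came from MKN1 cells, 2e4 per well, exposed 14 h at 37° C to compound at 0.001 nM-10 μM (1:5 series, 11 doses) in 0.1% DMSO.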

Structure (SMILES) | DC50 [nM] | Dmax [%] | CDK2 degradation 14 h: Average Dmax % | CDK2 degradation 14 h: Mean external-Abs DC50 (nM)
Cc1cc(S(=O)(=O)NC2CCC(CN3CCN(c4ccc(C5CCC(=O)NC5=O)c(Cl)c4)CC3)CC2)ccc1Nc1ncc(C(F)(F)F)c(N2CCC[C@](C)(O)C2)n1 (stereo partly drawn) [I-745, N-[4-[[4-[3-chloro-4-(2,6-dioxo-3-piperidyl)phenyl]piperazin-1-yl]methyl]cyclohexyl]-4-[[4-[(3S)-3-hydroxy-3-methyl-1-piperidyl]-5-(trifluoromethyl)pyrimidin-2-yl]amino]-3-methyl-benzenesulfonamide] | < 100 | > 75 | – | –
Cc1cc(S(=O)(=O)N[C@H](C)CO[C@H]2CC[C@H](CN3CCN(c4cccc5c4n(C)c(=O)n5C4CCC(=O)NC4=O)CC3)CC2)ccc1Nc1ncc(C(F)(F)F)c(N2CCC[C@](C)(O)C2)n1 (stereo partly drawn) [I-766, N-[(1R)-2-[4-[[4-[1-(2,6-dioxo-3-piperidyl)-3-methyl-2-oxo-benzimidazol-4-yl]piperazin-1-yl]methyl]cyclohexoxy]-1-methyl-ethyl]-4-[[4-[(3S)-3-hydroxy-3-methyl-1-piperidyl]-5-(trifluoromethyl)pyrimidin-2-yl]amino]-3-methyl-benzenesulfonamide] | < 100 | > 75 | – | –
Cc1cc(S(=O)(=O)NC2CCC(CN3CCN(c4cccc(NC5CCC(=O)NC5=O)c4)CC3)CC2)ccc1Nc1ncc(C(F)(F)F)c(N2CCCC(C)(O)C2)n1 (stereo not shown) [I-775] | < 100 | – | A (A (>75% o)) | –
Cc1cc(S(=O)(=O)NC2CC(N3CCN(CC4CCN(c5cccc6c5n(C)c(=O)n6C5CCC(=O)NC5=O)CC4)CC3)C2)ccc1Nc1ncc(C(F)(F)F)c(N2CCCCC2)n1 (stereo not shown) [I-795] | < 100 | – | A (A (>75% o)) | –
Cc1cc(S(=O)(=O)N[C@H]2C[C@H](N3CCN(CC4CCN(c5cccc6c5n(C)c(=O)n6C5CCC(=O)NC5=O)CC4)CC3)C2)ccc1Nc1ncc(C(F)(F)F)c(N2CCC[C@H](C(F)F)C2)n1 (stereo partly shown) [I-796] | < 100 | – | A (A (>75% o)) | –
Cc1cc(S(=O)(=O)N[C@H]2C[C@H](N3CCN(CC4CCN(c5cccc6c5n(C)c(=O)n6C5CCC(=O)NC5=O)CC4)CC3)C2)ccc1Nc1ncc(C(F)(F)F)c(N2CCC[C@@H](C(F)F)C2)n1 (stereo partly shown) [I-797] | < 100 | – | A (A (>75% o)) | –
Cc1cc(S(=O)(=O)NC2CCC(CN3CCN(c4ccc(C5CCC(=O)NC5=O)cc4)CC3)CC2)ccc1Nc1ncc(C(F)(F)F)c(N2CCCC(C)(O)C2)n1 (stereo not shown) [I-799] | < 100 | – | A (A (>75% o)) | –
Cc1cc(S(=O)(=O)NC2CCC(CN3CCN(c4cc(Cl)c(C5CCC(=O)NC5=O)cc4F)CC3)CC2)ccc1Nc1ncc(C(F)(F)F)c(N2CCCC(C)(O)C2)n1 (stereo not shown) [I-800] | < 100 | – | A (A (>75% o)) | –
Cc1cc(S(=O)(=O)NC2(C)CCN(CC3CCN(c4ccc(C5CCC(=O)NC5=O)c(Cl)c4)CC3)CC2)ccc1Nc1ncc(C(F)(F)F)c(N2CCC[C@](C)(O)C2)n1 (stereo partly shown) [I-801] | < 100 | – | A (A (>75% o)) | –
Cc1cc(S(=O)(=O)NC23CCC(CN4CCN(c5ccc(C6CCC(=O)NC6=O)cc5)CC4)(CC2)CC3)ccc1Nc1ncc(C(F)(F)F)c(N2CCC[C@](C)(O)C2)n1 (stereo partly shown) [I-802] | < 100 | – | A (A (>75% o)) | –
Cc1cc(S(=O)(=O)NC2(C)CCC(CN3CCN(c4ccc(C5CCC(=O)NC5=O)cc4F)CC3)CC2)ccc1Nc1ncc(C(F)(F)F)c(N2CCC[C@](C)(O)C2)n1 (stereo partly shown) [I-803] | < 100 | – | A (A (>75% o)) | –
Cc1cc(S(=O)(=O)N[C@@H]2CCN(CC3CCN(c4ccc(C5CCC(=O)NC5=O)cc4F)CC3)C[C@H]2F)ccc1Nc1ncc(C(F)(F)F)c(N2CCC[C@](C)(O)C2)n1 (stereo partly shown) [I-804] | < 100 | – | A (A (>75% o)) | –
Cc1cc(S(=O)(=O)NC2CCC(CN3CCN(c4cc(F)c(C5CCC(=O)NC5=O)cc4C)CC3)CC2)ccc1Nc1ncc(C(F)(F)F)c(N2CCCC(C)(O)C2)n1 (stereo not shown) [I-806] | < 100 | – | A (A (>75% o)) | –
Cc1cc(S(=O)(=O)NC2CCC(CN3CCN(c4ccc(C5CCC(=O)NC5=O)cc4Cl)CC3)CC2)ccc1Nc1ncc(C(F)(F)F)c(N2CCCC(C)(O)C2)n1 (stereo not shown) [I-807] | < 100 | – | A (A (>75% o)) | –
Cc1cc(S(=O)(=O)NC2(C)CCN(CC3(F)CCN(c4ccc(C5CCC(=O)NC5=O)cc4)CC3)CC2)ccc1Nc1ncc(C(F)(F)F)c(N2CCC[C@](C)(O)C2)n1 (stereo partly shown) [I-808] | < 100 | – | A (A (>75% o)) | –
Cc1cc(S(=O)(=O)N[C@H]2CC[C@H](CN3CCN(c4ccc(C5CCC(=O)NC5=O)cc4F)C[C@@H]3C)CC2)ccc1Nc1ncc(C(F)(F)F)c(N2CCC[C@](C)(O)C2)n1 (stereo partly shown) [I-810] | < 100 | – | A (A (>75% o)) | –
Cc1cc(S(=O)(=O)NC2CCC(CN3CCN(c4ccc(C5CCC(=O)NC5=O)cc4C)CC3)CC2)ccc1Nc1ncc(C(F)(F)F)c(N2CCCC(C)(O)C2)n1 (stereo not shown) [I-811] | < 100 | – | A (A (>75% o)) | –
Cc1cc(S(=O)(=O)NC2CCC(CN3CCN(c4ccc(C5CCC(=O)NC5=O)c(C)c4F)CC3)CC2)ccc1Nc1ncc(C(F)(F)F)c(N2CCCC(C)(O)C2)n1 (stereo not shown) [I-812] | < 100 | – | A (A (>75% o)) | –

Structure (SMILES) | DC50 [nM] | Dmax [%] | CDK2 degradation 14 h: Average Dmax % | CDK2 degradation 14 h: Mean external-Abs DC50 (nM)
Cc1cc(S(=O)(=O)NC2CCC(CN3CCN(c4ccc5c(c4F)n(C)c(=O)n5C4CCC(=O)NC4=O)CC3)CC2)ccc1Nc1ncc(C(F)(F)F)c(N2CCCC(C)(O)C2)n1 (stereo not shown) [I-813] | < 100 | – | A (A (>75% o)) | –
Cc1cc(S(=O)(=O)NC2(C)CCC(CN3CCN(c4ccc(C5CCC(=O)NC5=O)cc4F)CC3)CC2)ccc1Nc1ncc(C(F)(F)F)c(N2CCC[C@](C)(O)C2)n1 (stereo partly shown) [I-814] | < 100 | – | A (A (>75% o)) | –
Cc1cc(S(=O)(=O)NC2CCC(F)(CN3CCN(c4ccc(C5CCC(=O)NC5=O)cc4F)CC3)CC2)ccc1Nc1ncc(C(F)(F)F)c(N2CCC[C@](C)(O)C2)n1 (stereo partly shown) [I-815] | < 100 | – | A (A (>75% o)) | –
COc1cc(N2CCN(CC3CCC(NS(=O)(=O)c4ccc(Nc5ncc(C(F)(F)F)c(N6CCCC(C)(O)C6)n5)c(C)c4)CC3)CC2)c(F)cc1NC1CCC(=O)NC1=O (stereo not shown) [I-816] | < 100 | – | A (A (>75% o)) | –
O=C1CCC(c2ccc(N3CCN(C[C@H]4CC[C@H](NS(=O)(=O)c5ccc(Nc6ncc(C(F)(F)F)c(-c7cnn(C8CCOCC8)c7)n6)c(F)c5)CC4)CC3)cc2Cl)C(=O)N1 (stereo partly shown) [I-818] | < 100 | – | A (A (>75% o)) | –
Cc1cc(S(=O)(=O)C2CC3(CCN(CC4CCN(c5cccc6c5n(C)c(=O)n6C5CCC(=O)NC5=O)CC4)CC3)C2)ccc1Nc1ncc(C(F)(F)F)c(N2CCCC(C)(O)C2)n1 (stereo not shown) [I-819] | 500 to 1000 | – | B (B (>50% -75%)) | –
Cc1cc(S(=O)(=O)NC2CCC(CN3CCN(c4ccc(NC5CCC(=O)NC5=O)cc4F)CC3)CC2)ccc1Nc1ncc(C(F)(F)F)c(N2CCCC(C)(O)C2)n1 (stereo not shown) [I-822] | < 100 | – | A (A (>75% o)) | –
Cc1cc(S(=O)(=O)N2CCC(CN(C)C3CCN(c4cccc5c4n(C)c(=O)n5C4CCC(=O)NC4=O)CC3F)CC2)ccc1Nc1ncc2cc(Cl)c(=O)n(C3CCCC3)c2n1 (stereo not shown) [I-823] | < 100 | – | A (A (>75% o)) | –
Cc1cc(S(=O)(=O)N2CC3(CCC(CN4CCN(c5ccc6c(c5F)n(C)c(=O)n6C5CCC(=O)NC5=O)CC4)CC3)C2)ccc1Nc1ncc2cc(Cl)c(=O)n(C3CCCC3)c2n1 (stereo not shown) [I-824] | – | – | D (D (<25%)) | E
Cc1cc(S(=O)(=O)C2CC3(CCN(CC4CCN(c5ccc6c(c5F)n(C)c(=O)n6C5CCC(=O)NC5=O)CC4)CC3)C2)ccc1Nc1cc2cnc(Cl)cc2n(C2CCCC2)c1=O (stereo not shown) [I-825] | > 1000 | – | D (D (<25%)) | –
Cc1cc(S(=O)(=O)C2CC3(CCN(CCN4CCN(c5ccc6c(c5F)n(C)c(=O)n6C5CCC(=O)NC5=O)CC4)CC3)C2)ccc1Nc1ncc2cc(Cl)c(=O)n(C3CCCC3)c2n1 (stereo not shown) [I-826] | < 100 | – | B (B (>50% -75%)) | –
Cc1cc(S(=O)(=O)N[C@H](C)CO[C@H]2CC[C@H](CN3CCN(c4ccc5c(c4F)n(C)c(=O)n5C4CCC(=O)NC4=O)CC3)CC2)ccc1Nc1ncc2ccc(=O)n(C3CCCC3)c2n1 (stereo partly shown) [I-827] | < 100 | – | A (A (>75% o)) | –
Cc1cc(S(=O)(=O)N[C@@H](C)CO[C@H]2CC[C@H](CN3CCN(c4ccc5c(c4F)n(C)c(=O)n5C4CCC(=O)NC4=O)CC3)CC2)ccc1Nc1ncc2ccc(=O)n(C3CCCC3)c2n1 (stereo partly shown) [I-828] | < 100 | – | A (A (>75% o)) | –
Cc1cc(S(=O)(=O)N2CCC(N3CCC(F)(CN(C)c4ccc5c(c4F)n(C)c(=O)n5C4CCC(=O)NC4=O)CC3)CC2)ccc1Nc1ncc2ccc(=O)n(C3CCCC3)c2n1 (stereo not shown) [I-829] | – | – | D (D (<25%)) | E
Cc1cc(S(=O)(=O)NC2CC(N3CCN(CC4CCN(c5ccc6c(c5F)n(C)c(=O)n6C5CCC(=O)NC5=O)CC4)CC3)C2)ccc1Nc1ncc(C(F)(F)F)c(N2CCCC(C)(O)C2)n1 (stereo not shown) [I-830] | < 100 | – | A (A (>75% o)) | –
Cc1cc(S(=O)(=O)NC2CC(N3CCN(CC4CCN(c5ccc6c(c5F)n(C)c(=O)n6C5CCC(=O)NC5=O)CC4)CC3)C2)ccc1Nc1ncc(C(F)(F)F)c(N2CCCC(C)(O)C2)n1 (stereo not shown) [I-831] | < 100 | – | A (A (>75% o)) | –
Cc1cc(S(=O)(=O)NC2CC(N3CCN(CC4CCN(c5ccc6c(c5F)n(C)c(=O)n6C5CCC(=O)NC5=O)CC4)CC3)C2)ccc1Nc1ncc2cc(Cl)c(=O)n(C3CCCC3)c2n1 (stereo not shown) [I-832] | < 100 | – | A (A (>75% o)) | –
